Test results reported in PubChem BioAssay AID504824 (The Scripps Research Institute Molecular Screening Center, 2011).
pEC50: −log10 of the molar value. The source made the active and inactive calls.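 The calls were made as follows: active = compound reaching half of full procaspase-3 activation at 10 µM or lower; inactive = the rest.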

Target: Caspase-3 (Homo sapiens) (UniProt P42574)
Assay: activators of human procaspase-3 D3A mutant – biochemical, absorbance, PC-3 D3A mutant, powder samples, counter-screen for dual procaspase-3/7 activator project, late-stage follow-up (AID 504824)
Settings: recombinant PC-3 D3A, Ac-DEVD-pNA absorbance 405 nm

Chain of Caspase-3 (Homo sapiens) (P42574 whole entry D9A/D28A/D175A): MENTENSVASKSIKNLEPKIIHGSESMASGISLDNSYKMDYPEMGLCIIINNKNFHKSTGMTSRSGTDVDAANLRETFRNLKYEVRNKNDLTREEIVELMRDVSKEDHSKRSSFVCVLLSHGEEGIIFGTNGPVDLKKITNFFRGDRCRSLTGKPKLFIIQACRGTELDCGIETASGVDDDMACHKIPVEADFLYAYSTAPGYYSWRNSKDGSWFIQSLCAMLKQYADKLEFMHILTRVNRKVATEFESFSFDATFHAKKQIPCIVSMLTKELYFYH

EC50 | pEC50 | Compound
> 85.3 µM (inactive) | – | O=C(C1=NN(c2ccccc2)C2C(=O)N(c3ccccc3)C(=O)C12)c1ccccc1 (stereo not given)
> 85.3 µM (inactive) | – | O=C(Nc1ccc(Cc2ccncc2)cc1)C1CCC(N2C(=O)C3C4C=CC(C5CC45)C3C2=O)CC1 (stereo not given)
> 85.3 µM (inactive) | – | COC(=O)C1=NN(c2ccc(Cl)cc2)C2C(=O)N(c3ccccc3OC)C(=O)C12 (stereo not given)

The remaining lines, values behind:

Compound | EC50 | pEC50
Cc1[nH]nc2c1C(c1c[nH]c3ccccc13)C(C#N)=C(N)O2 (stereo not given) | – | 5.44
COc1ccccc1N1C(=O)C2C(C(=O)c3ccccc3)=NN(c3ccccc3)C2C1=O (stereo not given) | > 85.3 µM (inactive) | –
